Reference: patent EP4748847A1, “PEPTIDE COMPLEX HAVING VEGFR -2 AGONIST ACTIVITY” (Peptidream Inc, priority 2023, dated 2025)
Where no end group is shown, it is not given here.

Columns and labels:
VEGFR-2 = target: T1, VEGFR-2 (Homo sapiens, UniProt P35968); test: pVEGFR AlphaLISA assay (VEGFR-2 phosphorylation, p-Tyr1175) in HUVECs; assay type: cell-based; conditions: 10 minutes stimulation, % activity, maximum VEGF165a signal = 100%, unstimulated = 0%, peptide 10, 100 nM (dimer structures 2-41)
T1 construct: endogenous in cells; host or cells: HUVEC
Outline: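 HUVECs grown 2 days, starved 18 hours in EBM-2 with 0.5% FBS, then stimulated 10 minutes at 37°C with peptide or VEGF165a (0.08–20 nM). VEGFR-2 p-Tyr1175 in lysates read by AlphaLISA; % activity scaled to maximal VEGF165a signal (100%) and unstimulated control (0%), binned by activity at tested peptide concentrations.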

HUVEC = HUVEC proliferation promotion evaluation (CellTiter-Glo); assay type: cell-based, human; conditions: 2 days culture, % activity, maximum VEGF165a signal = 100%, peptide 1, 10, 100 nM
Method: To evaluate the biological activity of the VEGFR-2 agonist peptide of the present invention, an HUVEC proliferation promotion evaluation was conducted. HUVECs cultured as described above were detached using Tryple (Thermo Fisher Scientific). They were then seeded at 10,000 cells per well onto Nunc™ MicroWell™ 96 -Well, Nunclon Delta-Treated, Flat-Bottom Microplate (cat. #136101) . After 24 hours, cells were starved by replacing with EBM-2 medium (LONZA) containing 0.5% FBS (Thermo Fisher Scientific), 0.1% Heparin (included with the above Lonza CC-3162), and 0.1% Gentamicin (Nacalai) and cultured for 18 hours. Subsequently, Recombinant Human VEGF 165a Protein (R&D Systems) or the peptide was added, and the cells were cultured for 2 days at 37°C in a CO2 incubator. Assays were performed according to the CellTiter-Glo (Promega) kit protocol, and signals were detected using a SpectraMax Paradigm multimode microplate reader (Molecular Devices) was used for signal detection. The obtained signals were analyzed using GraphPad Prism, and % activity was calculated with the maximum signal induced by VEGF165a set as 100% and the unstimulated control as 0%.
The VEGF165a concentration was evaluated at six points (0.006, 0.03, 0.16, 0.8, 4, 20 nM) using 1/5-fold dilutions starting from 20 nM to determine the maximum value (100%). […]

ERK = test: pERK AlphaLISA assay (ERK phosphorylation, p-Erk1/2 Thr202/Tyr204) in HUVEC lysate; assay type: cell-based, human; conditions: HUVEC lysate of the pVEGFR assay; % activity, maximum VEGF165a signal = 100%, unstimulated = 0%; peptide 10, 100 nM (dimer structures 2-41)
Method: To evaluate the intracellular signaling activation ability of the VEGFR-2 agonist peptides of the present invention, ERK phosphorylation was verified. Using the lysate employed in the pVEGFR AlphaLISA assay, the assay was performed according to the protocol of the AlphaLISA SureFire Ultra p-Erk1/2 (Thr202/Tyr204) Assay Kit (PerkinElmer). Signal detection was performed using a SpectraMax Paradigm multimode microplate reader (Molecular Devices). The obtained signals were analyzed using GraphPad Prism, and % activity was calculated with the maximum signal induced by VEGF165a set as 100% and the unstimulated control as 0%.
The VEGF165a concentration was evaluated at five points (0.08, 0.31, 1.25, 5, 20 nM) using 1/4-fold dilutions starting from 20 nM to determine the maximum value (100%). Peptide concentrations tested were: 3.2, 16, 80 nM for dimer structure […], 100 nM for dimer structures numbers 2-41; and 1.25, 5, 20 nM for dimer structures numbers 42-57.
For % activity, peptides showing ≥50% activity at 3.2 nM were designated 1-A, those showing ≥50% activity at 16 nM were designated 1-B, those showing ≥50% activity at 80 nM were designated 1-C, and those showing ≥1% but <50% activity at 80 nM were designated 1-D. […]

T1 sequence (P35968 20-1356): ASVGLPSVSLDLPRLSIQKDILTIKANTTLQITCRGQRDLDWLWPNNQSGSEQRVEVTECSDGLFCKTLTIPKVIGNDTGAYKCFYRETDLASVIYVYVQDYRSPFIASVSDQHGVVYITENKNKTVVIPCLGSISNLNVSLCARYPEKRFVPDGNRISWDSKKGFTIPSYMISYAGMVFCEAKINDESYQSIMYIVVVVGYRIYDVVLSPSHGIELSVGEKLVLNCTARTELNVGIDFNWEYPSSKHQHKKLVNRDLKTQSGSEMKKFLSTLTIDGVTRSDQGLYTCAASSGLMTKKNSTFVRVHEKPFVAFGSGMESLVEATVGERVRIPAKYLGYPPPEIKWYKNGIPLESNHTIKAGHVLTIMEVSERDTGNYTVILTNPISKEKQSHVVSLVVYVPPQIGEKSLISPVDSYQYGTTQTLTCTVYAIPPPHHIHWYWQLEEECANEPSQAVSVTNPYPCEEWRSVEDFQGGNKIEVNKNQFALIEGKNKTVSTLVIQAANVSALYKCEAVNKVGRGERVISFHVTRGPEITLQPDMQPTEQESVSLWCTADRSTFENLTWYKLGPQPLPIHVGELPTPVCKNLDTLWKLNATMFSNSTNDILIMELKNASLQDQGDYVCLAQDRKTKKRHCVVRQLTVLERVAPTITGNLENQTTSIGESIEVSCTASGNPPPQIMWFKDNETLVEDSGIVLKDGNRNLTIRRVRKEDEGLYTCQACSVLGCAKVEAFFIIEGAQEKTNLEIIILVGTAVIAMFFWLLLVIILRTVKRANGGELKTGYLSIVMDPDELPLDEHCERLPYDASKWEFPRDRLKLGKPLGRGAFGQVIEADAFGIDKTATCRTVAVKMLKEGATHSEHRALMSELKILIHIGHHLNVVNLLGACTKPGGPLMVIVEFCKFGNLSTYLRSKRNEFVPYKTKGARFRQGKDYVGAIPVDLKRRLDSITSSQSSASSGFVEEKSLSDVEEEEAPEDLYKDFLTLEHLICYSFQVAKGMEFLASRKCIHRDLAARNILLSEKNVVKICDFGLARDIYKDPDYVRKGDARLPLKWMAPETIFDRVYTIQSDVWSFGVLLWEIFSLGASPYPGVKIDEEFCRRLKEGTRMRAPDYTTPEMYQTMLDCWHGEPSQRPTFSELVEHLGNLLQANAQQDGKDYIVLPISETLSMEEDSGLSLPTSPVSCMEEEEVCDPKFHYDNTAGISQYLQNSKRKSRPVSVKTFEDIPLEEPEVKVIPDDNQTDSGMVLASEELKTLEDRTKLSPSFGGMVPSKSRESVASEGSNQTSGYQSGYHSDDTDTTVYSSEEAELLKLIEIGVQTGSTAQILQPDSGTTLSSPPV

“Dimer Structure No. 1: complex of Peptide Sequence No. 3 (W-W-V-D-V-Q-D-D-L-Y-F-V-D-C-G) and Linker Structure No. 1 (PEG12c-K-PEG12c), Conjugation No. 15 (WWVDVQDDLYFVDCG; also: dimer via PEG12c-K-PEG12c linker)” was tested, and the “pVEGFR2 Assay Results” value (VEGFR-2) was 2-C (1% or more but less than 50% activity at 100 nM), the proliferation (HUVEC) was 4-D (≥1% but <50% activity at 100 nM) and the “pERK Assay Results” value (ERK) was 2-B (50% or more activity at 100 nM).
